Source: patent US20110117588A1, “METHOD OF PREDICTING DRUG-INDUCED PHOSPHOLIPIDOSIS” (KYUSHU UNIVERSITY, NATIONAL UNIVERSITY CORPORATION, priority 2007, published 2011)
Like-named read-outs stand apart in the source and are kept apart here. Each block holds one compound with its values, some of them ahead of it.

How the values were obtained:
NRK cells [1] = test: Intracellular and extracellular cathepsin D and cathepsin L levels by Western blotting; format: cell-based, rat
Procedure: In the case of cathepsin D (CTD), it is biosynthesized as an about 45 kDa proenzyme in rat cell (NRK), and processed in the acidic environment of lysosome to become an about 43 kDa mature enzyme.
Therefore, NRK cells were exposed to 0 (control), 5, 10, 20, 40 and 80 μM of AD for 24 hr, and lysosomal enzyme (CTD and cathepsin L (CTL)) levels in the cell and medium were measured by Western blotting using an antibody to these enzymes. To be specific, immunoprecipitates against anti-CTD antibody in cell lysate and medium or the cell lysate and medium for CTL were subjected to Western blot analysis using an anti-CTD antibody or anti-CTL antibody. […] Therefore, it was also shown that increased lysosomal enzyme in the medium was not caused by extracellular leakage due to cell damage and the like, but by selective extracellular secretion thereof.
(§1) On the other hand, CTL is biosynthesized as an about 39 kDa proenzyme, and converted to a 30 kDa single strand intermediate enzyme and a 23 kDa and 7 kDa double stranded mature enzyme during the process of intracellular transport. […] While CTD increased the enzyme activity in the medium in an AD dose-dependent manner, CTL caused no change. The reason therefor is considered to be the measurement of CTD activity at pH 4.0 where autocatalytic processing occurs, and the measurement of CTL activity at pH 6.0 where processing scarcely occurs.

NRK cells [2] = test: Localization of MPR in NRK cells by confocal laser microscope with antibody; conditions: 24 hr exposure, concentration at which localization altered
NRK cells [3] = test: β-hexosaminidase activity in the medium after exposure of NRK cells
From the text: On the other hand, the activity of lysosomal enzyme can be measured using an activity measurement method by known per se for each enzyme. For example, lysosomal enzyme can be quantified by contacting a sample with a substrate compound for a lysosomal enzyme, which emits fluorescence or develops color by an enzyme reaction, and measuring the intensity of the resulting fluorescence or developed color by a fluorometer, spectrophotometer and the like. For example, as a measurement method of β-hexosaminidase, β-galactosidase, β-glucuronidase or β-mannosidase, the method described in The EMBO Journal, 12: 5219-5223 (1993) can be mentioned, as a measurement method of cathepsin D, the method described in J. Biochem, 125: 1137-1143 (1999) can be mentioned, and as a measurement method of cathepsin B/L, the method described in Methods in Enzymology, 80: 535-561 (1981) can be mentioned.
Furthermore, the activity of β-hexosaminidase in the medium was measured by a conventional method.

NRK cells [4] = test system: NRK cells
NRK cells [5] = test: Intracellular LC3 level by Western blotting and confocal microscopy; format: cell-based; conditions: 20 μM; for LC3-II level: Western blot
Procedure: NRK cells were exposed to 20 μM of AD for 1, 3, 6, 12 and 24 hr, and the level of LC3 (microtuble-associated protein 1 light chain 3), which is an autophagy marker, in each cell was measured by Western blotting using an antibody to the protein. That is, cell lysate was subjected to Western blot analysis using an anti-LC3 antibody.
NRK cells were exposed to various PLIDs for 24 hr, and the intracellular level of LC3 was measured by western blotting.

NRK cells [6] = test: Swelling of late endosome/lysosome (LGP85 staining) and phospholipid accumulation (Nile Red) in NRK cells; format: cell-based, rat
Procedure: The cells were cultured in a DMEM medium supplemented with lipoprotein-deficient serum to 10% instead of normal fetal bovine serum, and morphological changes of lysosome and the presence or absence of phospholipid accumulation due to exposure to AD under the conditions free of extracellular supply of lipoprotein were examined.

NRK cells [7] = test: Extracellular and intracellular lysosomal enzyme activity after exposure of NRK cells; format: cell-based, rat; conditions: 24 hr
Procedure: NRK cells were exposed to 0 (solvent control), 5, 10, 20, 40 and 80 μM of AD for 24 hr, and lysosomal enzyme activities in the cell and medium were measured by a conventional method.
as §1

β-hex activity increase (NRK cells [3]): none
Structure (SMILES): C[C@H](CS)C(=O)N1CCC[C@H]1C(=O)O [captopril]

β-hex activity increase (NRK cells [3]; rat, 24 h): >400 µM
Structure (SMILES): CC[C@H]1OC(=O)[C@H](C)[C@@H](O[C@H]2C[C@@](C)(OC)[C@@H](O)[C@H](C)O2)[C@H](C)[C@@H](O[C@@H]2O[C@H](C)C[C@H](N(C)C)[C@H]2O)[C@](C)(O)C[C@@H](C)C(=O)[C@H](C)[C@@H](O)[C@]1(C)O [erythromycin]

β-hex activity increase (NRK cells [3]; rat, 24 h): >40 µM
Structure (SMILES): CN(C)CCCN1c2ccccc2CCc2ccccc21 [imipramine]

alteration of MPR localization (NRK cells [4]; rat, 24 h): 20 µM
β-hex activity increase (NRK cells [3]; rat, 24 h): >20 µM
Structure (SMILES): CNCCCC12CCC(c3ccccc31)c1ccccc12 [maprotiline]

β-hex activity increase (NRK cells [3]; rat, 24 h): 100 µM
Structure (SMILES): C=C[C@H]1C[N@@]2CC[C@H]1C[C@@H]2[C@@H](O)c1ccnc2ccc(OC)cc12 [quinidine]

alteration of MPR localization (NRK cells [4]; rat, 24 h): 10 µM
β-hex activity increase (NRK cells [3]; rat, 24 h): 10 µM
Structure (SMILES): CSc1ccc2c(c1)N(CCC1CCCCN1C)c1ccccc1S2 (stereo not drawn) [thioridazine]

Further lines, the compound ahead of its results:

Structure (SMILES): Cl.N [NH4Cl, ammonium chloride]
ratio of intracellular cathepsin D proenzyme (NRK cells [1]; NRK cells, 24 hr, Western blot of cell lysate immunoprecipitate): the ratio of intracellular proenzyme increased
cathepsin D proenzyme in the medium (NRK cells [1]; NRK cells, 24 hr, Western blot of medium immunoprecipitate): the amount of proenzyme secreted in the medium increased
alteration of MPR localization (NRK cells [2]): >5 mM
β-hex activity increase (NRK cells [3]; NRK cells, 24 hr exposure, concentration at which β-hexosaminidase activity in medium increased): >1000 µM

Structure (SMILES): CCN(CC)CCO[C@H]1CC[C@@]2(C)C(=CC[C@@H]3[C@@H]2CC[C@]2(C)C(=O)CC[C@@H]32)C1 [U18666A]
alteration of MPR localization (NRK cells [4]; rat, 24 h): 3 µg/mL
β-hex activity increase (NRK cells [3]; rat, 24 h): 3 µg/mL

Structure (SMILES): CCCCc1oc2ccccc2c1C(=O)c1cc(I)c(OCCN(CC)CC)c(I)c1 [amiodarone]
CTL proenzyme in the medium (NRK cells [1]): only proenzyme increased in an AD dose-dependent manner
cathepsin D proenzyme in the medium (NRK cells [1]): only proenzyme increased in an AD dose-dependent manner
ratio of CTL mature enzyme in the cell (NRK cells [1]): decreased in an AD dose-dependent manner
ratio of CTL proenzyme in the cell (NRK cells [1]): the ratio of proenzyme increased
ratio of intracellular cathepsin D proenzyme (NRK cells [1]): increased in a dose-dependent manner
alteration of MPR localization (NRK cells [4]): altered
alteration of MPR localization (NRK cells [4]; rat, 24 h): >10 µM
granular staining with LC3 in the cell (NRK cells [5]; 1-24 hr, confocal laser microscope): increased in a time-dependent manner
LC3-II level (NRK cells [5]; 12 and 24 hr): remarkably increased
LC3-II level (NRK cells [5]; 3 hr): increased
accumulation of phospholipid (NRK cells [6]; NRK cells in DMEM with 10% lipoprotein-deficient serum): accumulation of phospholipid was found at the site
late endosome/lysosome morphology (LGP85) (NRK cells [6]; NRK cells in DMEM with 10% lipoprotein-deficient serum, various concentrations, 24 hr): enlargement of late endosome/lysosome occurred in an AD dose-dependent manner
accumulation of phospholipid (Nile Red staining) (NRK cells [6]; NRK cells, 24 hr exposure): accumulation of phospholipid was found
late endosome/lysosome morphology (LGP85 antibody) (NRK cells [6]; NRK cells, 24 hr exposure): enlarged
activity of α-glucosidase (endoplasmic reticulum enzyme) (NRK cells [7]; 5-80 μM): changed only at 80 μM
intracellular lysosomal enzyme activity (NRK cells [7]; 5-80 μM): decreased
lysosomal enzyme activity in the medium (NRK cells [7]; 5-80 μM): increased in an AD dose-dependent manner
CTL activity in the medium (NRK cells [7]; 5-80 μM, measured at pH 6.0): changed only at 80 μM
intracellular CTL activity (NRK cells [7]; 5-80 μM, measured at pH 6.0): decreased in a dose-dependent manner
concentration showing cytotoxicity (NRK cells [7]): 80 µM
β-hex activity increase (NRK cells [3]; rat, 24 h): >10 µM

Structure (SMILES): CC1(C)S[C@@H]2[C@H](NC(=O)[C@H](N)c3ccc(O)cc3)C(=O)N2[C@H]1C(=O)O [amoxicillin]
alteration of MPR localization (NRK cells [4]): none
β-hex activity increase (NRK cells [3]): none

Structure (SMILES): CC(=O)Oc1ccccc1C(=O)O [aspirin]
alteration of MPR localization (NRK cells [4]): none
β-hex activity increase (NRK cells [3]): none

Structure (SMILES): CCN(CC)CCCC(C)Nc1ccnc2cc(Cl)ccc12 (stereo not drawn) [chloroquine]
cathepsin D proenzyme in the medium (NRK cells [1]): the amount of proenzyme secreted in the medium increased
ratio of intracellular cathepsin D proenzyme (NRK cells [1]): the ratio of intracellular proenzyme increased
alteration of MPR localization (NRK cells [4]; rat, 24 h): >5 µM
β-hex activity increase (NRK cells [3]; rat, 24 h): >5 µM

Structure (SMILES): CN(C)CCCN1c2ccccc2Sc2ccc(Cl)cc21 [chlorpromazine]
β-hex activity increase (NRK cells [3]; rat, 24 h): 20 µM

Structure (SMILES): O=C(CCCN1CCC(O)(c2ccc(Cl)cc2)CC1)c1ccc(F)cc1 [haloperidol]
alteration of MPR localization (NRK cells [4]; rat, 24 h): >20 µM
β-hex activity increase (NRK cells [3]; rat, 24 h): >10 µM

Structure (SMILES): C1CCC(C(CC2CCCCN2)C2CCCCC2)CC1 (stereo not drawn) [perhexiline]
alteration of MPR localization (NRK cells [4]; rat, 24 h): 2.5 µM
β-hex activity increase (NRK cells [3]; rat, 24 h): 5 µM

Structure (SMILES): CC/C(=C(\c1ccccc1)c1ccc(OCCN(C)C)cc1)c1ccccc1 [tamoxifen]
alteration of MPR localization (NRK cells [4]; rat, 24 h): 10 µM
β-hex activity increase (NRK cells [3]; rat, 24 h): >10 µM

Structure (SMILES): CCN(CC)CCOc1ccc2c(c1)C(=O)c1cc(OCCN(CC)CC)ccc1-2 [tilorone]
cathepsin D proenzyme in the medium (NRK cells [1]): the amount of proenzyme secreted in the medium increased
ratio of intracellular cathepsin D proenzyme (NRK cells [1]): the ratio of intracellular proenzyme increased
alteration of MPR localization (NRK cells [4]; rat, 24 h): >5 µM
β-hex activity increase (NRK cells [3]; rat, 24 h): >2.5 µM
